Experimental findings from the OligoGym collection are described below.

HELM strings list units from the 5' end as sugar, base in round brackets, then linkage (d deoxyribose, r ribose, m 2'-O-methyl, p phosphodiester). Strings are as the collection lists them; they lack the last nucleoside at the 3' end of the tested compound. [moe] = 2'-O-(2-methoxyethyl) (MOE); [sp] = phosphorothioate linkage; [m5C] = 5-methylcytosine

The target of the data set is GFAP. Nature of the data set: mouse, dose not given. As to conditions: ASO.
Substance “RNA1{[moe](A)[sp].[moe](G)p.[moe](A)p.[moe](T)p.[moe](A)[sp].d(T)[sp].d([m5C])[sp].d(T)[sp].d(T)[sp].d(G)[sp].d(T)[sp].d(G)[sp].d(A)[sp].d([m5C])[sp].d([m5C])[sp].[moe](T)p.[moe](T)p.[moe](G)[sp].[moe](T)}$$$$ (last 3' nucleoside missing)” came in with a 3 h FOB score of 6 score 0-7. With “RNA1{[moe](G)[sp].[moe](T)p.[moe](G)p.[moe](T)p.[moe](G)p.[moe](T)p.d(A)[sp].d(T)[sp].d(T)[sp].d(A)[sp].d(G)[sp].d(G)[sp].d(A)[sp].d(T)[sp].d([m5C])[sp].d([m5C])[sp].[moe]([m5C])p.[moe](A)[sp].[moe](T)}$$$$ (last 3' nucleoside missing)” the figure was 4 score 0-7; with “RNA1{[moe]([m5C])[sp].[moe](A)p.[moe](T)p.[moe]([m5C])p.[moe](T)[sp].d(G)[sp].d([m5C])[sp].d(T)[sp].d(T)[sp].d([m5C])[sp].d([m5C])[sp].d(T)[sp].d(G)[sp].d(G)[sp].d(A)[sp].[moe](G)p.[moe](T)p.[moe](G)[sp].[moe](G)}$$$$ (last 3' nucleoside missing)”, 1 score 0-7.

With “RNA1{[moe](G)[sp].[moe]([m5C])p.[moe](A)p.[moe](G)p.[moe]([m5C])[sp].d(A)[sp].d(T)[sp].d(T)[sp].d(T)[sp].d(G)[sp].d(T)[sp].d([m5C])[sp].d(T)[sp].d(T)[sp].d(T)[sp].[moe](A)p.[moe](T)p.[moe](T)[sp].[moe](T)}$$$$ (last 3' nucleoside missing)”, the 3 h FOB score worked out at 4 score 0-7. Under “RNA1{[moe](G)[sp].[moe]([m5C])p.[moe](G)p.[moe](A)p.[moe](T)[sp].d(G)[sp].d(G)[sp].d(A)[sp].d(G)[sp].d([m5C])[sp].d([m5C])[sp].d(T)[sp].d([m5C])[sp].d(A)[sp].d(G)[sp].[moe](G)p.[moe](G)p.[moe](A)[sp].[moe](T)}$$$$ (last 3' nucleoside missing)” stands 7 score 0-7; under “RNA1{[moe](G)[sp].[moe](G)p.[moe](A)p.[moe](G)p.[moe](G)[sp].d(G)[sp].d(T)[sp].d(G)[sp].d(A)[sp].d([m5C])[sp].d([m5C])[sp].d([m5C])[sp].d(A)[sp].d(A)[sp].d(G)[sp].[moe](T)p.[moe]([m5C])p.[moe]([m5C])[sp].[moe](T)}$$$$ (last 3' nucleoside missing)”, 4 score 0-7; under “RNA1{[moe](T)[sp].[moe](G)p.[moe](G)p.[moe](T)p.[moe]([m5C])p.d([m5C])[sp].d(T)[sp].d(A)[sp].d(A)[sp].d(A)[sp].d(T)[sp].d(A)[sp].d(T)[sp].d(T)[sp].d([m5C])[sp].[moe](T)p.[moe](A)p.[moe](G)[sp].[moe](T)}$$$$ (last 3' nucleoside missing)”, 1 score 0-7. With “RNA1{[moe](G)[sp].[moe]([m5C])p.[moe](T)p.[moe]([m5C])p.[moe]([m5C])[sp].d([m5C])[sp].d(A)[sp].d([m5C])[sp].d(A)[sp].d([m5C])[sp].d(T)[sp].d(A)[sp].d([m5C])[sp].d(A)[sp].d(T)[sp].[moe](A)p.[moe](T)p.[moe](A)[sp].[moe](A)}$$$$ (last 3' nucleoside missing)” the figure was 2 score 0-7; with “RNA1{[moe](T)[sp].[moe](G)p.[moe]([m5C])p.[moe]([m5C])p.[moe](A)p.[moe](T)p.d(T)[sp].d(T)[sp].d(A)[sp].d(T)[sp].d([m5C])[sp].d(T)[sp].d(G)[sp].d(T)[sp].d(G)[sp].d([m5C])[sp].[moe](T)p.[moe](T)[sp].[moe](T)}$$$$ (last 3' nucleoside missing)”, 2 score 0-7. With “RNA1{[moe](A)[sp].[moe](G)p.[moe](G)p.[moe](G)p.[moe](T)[sp].d(G)[sp].d(G)[sp].d([m5C])[sp].d(T)[sp].d(T)[sp].d([m5C])[sp].d(A)[sp].d(T)[sp].d([m5C])[sp].d(T)[sp].[moe](G)p.[moe]([m5C])p.[moe](T)[sp].[moe](T)}$$$$ (last 3' nucleoside missing)” the figure was 2 score 0-7. On to “RNA1{[moe](T)[sp].[moe](G)p.[moe](G)p.[moe]([m5C])p.[moe](A)p.d(G)[sp].d(T)[sp].d(A)[sp].d(T)[sp].d(T)[sp].d(A)[sp].d([m5C])[sp].d([m5C])[sp].d(T)[sp].d([m5C])[sp].[moe](T)p.[moe](A)p.[moe]([m5C])[sp].[moe](T)}$$$$ (last 3' nucleoside missing)”, for which the 3 h FOB score came to 1 score 0-7. Under “RNA1{[moe](A)[sp].[moe](A)p.[moe](T)p.[moe]([m5C])p.[moe](A)[sp].d(T)[sp].d(T)[sp].d(T)[sp].d([m5C])[sp].d(A)[sp].d(G)[sp].d(G)[sp].d(G)[sp].d([m5C])[sp].d([m5C])[sp].[moe](A)p.[moe](A)p.[moe](T)[sp].[moe](G)}$$$$ (last 3' nucleoside missing)” stands 5 score 0-7; under “RNA1{[moe](G)[sp].[moe](G)p.[moe](G)p.[moe](T)p.[moe](G)[sp].d(A)[sp].d([m5C])[sp].d([m5C])[sp].d([m5C])[sp].d(A)[sp].d(A)[sp].d(G)[sp].d(T)[sp].d([m5C])[sp].d([m5C])[sp].[moe](T)p.[moe](T)p.[moe](G)[sp].[moe](G)}$$$$ (last 3' nucleoside missing)”, 5 score 0-7; under “RNA1{[moe](T)[sp].[moe]([m5C])p.[moe](T)p.[moe]([m5C])p.[moe](A)[sp].d(G)[sp].d(T)[sp].d(T)[sp].d(T)[sp].d(T)[sp].d([m5C])[sp].d([m5C])[sp].d(T)[sp].d([m5C])[sp].d([m5C])[sp].[moe](A)p.[moe](G)p.[moe]([m5C])[sp].[moe](A)}$$$$ (last 3' nucleoside missing)”, 4 score 0-7. Under “RNA1{[moe](T)[sp].[moe](T)p.[moe](G)p.[moe](G)p.d(T)[sp].d(G)[sp].d([m5C])[sp].d(T)[sp].d(T)[sp].d(T)[sp].d(T)[sp].d(G)[sp].d([m5C])[sp].d([m5C])[sp].[moe]([m5C])p.[moe]([m5C])p.[moe]([m5C])p.[moe](T)[sp].[moe](G)}$$$$ (last 3' nucleoside missing)” stands 1 score 0-7; under “RNA1{[moe]([m5C])[sp].[moe](T)p.[moe](T)p.[moe](T)p.[moe]([m5C])[sp].d(T)[sp].d([m5C])[sp].d(T)[sp].d([m5C])[sp].d([m5C])[sp].d(T)[sp].d(G)[sp].d(T)[sp].d(T)[sp].d(T)[sp].[moe]([m5C])p.[moe](A)p.[moe](G)[sp].[moe]([m5C])}$$$$ (last 3' nucleoside missing)”, 3 score 0-7; under “RNA1{[moe](G)[sp].[moe](G)p.[moe]([m5C])p.[moe](A)p.[moe](G)[sp].d(T)[sp].d(A)[sp].d(T)[sp].d(T)[sp].d(A)[sp].d([m5C])[sp].d([m5C])[sp].d(T)[sp].[moe]([m5C])p.[moe](T)p.[moe](A)[sp].[moe]([m5C])}$$$$ (last 3' nucleoside missing)”, 0 score 0-7. Turning to “RNA1{[moe](G)[sp].[moe](A)p.[moe](G)p.[moe](A)p.[moe](T)[sp].d(A)[sp].d(T)[sp].d([m5C])[sp].d(T)[sp].d(T)[sp].d(G)[sp].d(T)[sp].d(G)[sp].d(A)[sp].d([m5C])[sp].[moe]([m5C])p.[moe](T)p.[moe](T)[sp].[moe](G)}$$$$ (last 3' nucleoside missing)”, the 3 h FOB score worked out at 4 score 0-7. With “RNA1{[moe](G)[sp].[moe](T)p.[moe]([m5C])p.[moe](A)p.[moe](G)[sp].d([m5C])[sp].d([m5C])[sp].d(T)[sp].d(G)[sp].d(G)[sp].d(T)[sp].d(T)[sp].d(A)[sp].[moe](G)p.[moe]([m5C])p.[moe]([m5C])[sp].[moe](T)}$$$$ (last 3' nucleoside missing)” the figure was 1 score 0-7.

Consider “RNA1{[moe](T)[sp].[moe](T)p.[moe](G)p.[moe](T)p.[moe]([m5C])[sp].d(T)[sp].d(T)[sp].d(T)[sp].d(A)[sp].d(T)[sp].d(T)[sp].d(T)[sp].d(T)[sp].[moe](T)p.[moe]([m5C])p.[moe]([m5C])[sp].[moe](T)}$$$$ (last 3' nucleoside missing)”, for which the 3 h FOB score is 0 score 0-7. With “RNA1{[moe]([m5C])[sp].[moe](A)p.[moe](T)p.[moe](T)p.d(T)[sp].d(G)[sp].d(T)[sp].d([m5C])[sp].d(T)[sp].d(T)[sp].d(T)[sp].d(A)[sp].d(T)[sp].d(T)[sp].[moe](T)p.[moe](T)p.[moe](T)p.[moe]([m5C])[sp].[moe]([m5C])}$$$$ (last 3' nucleoside missing)” the figure was 0 score 0-7. Under “RNA1{[moe](G)[sp].[moe](T)p.[moe]([m5C])p.[moe](T)p.[moe]([m5C])[sp].d(A)[sp].d(G)[sp].d(T)[sp].d(T)[sp].d(T)[sp].d(T)[sp].d([m5C])[sp].d([m5C])[sp].d(T)[sp].d([m5C])[sp].[moe]([m5C])p.[moe](A)p.[moe](G)[sp].[moe]([m5C])}$$$$ (last 3' nucleoside missing)” stands 0 score 0-7; under “RNA1{[moe](G)[sp].[moe](A)p.[moe](G)p.[moe](A)p.[moe](T)[sp].d(A)[sp].d(T)[sp].d([m5C])[sp].d(T)[sp].d(T)[sp].d(G)[sp].d(T)[sp].d(G)[sp].[moe](A)p.[moe]([m5C])p.[moe]([m5C])[sp].[moe](T)}$$$$ (last 3' nucleoside missing)”, 4 score 0-7; under “RNA1{[moe](G)[sp].[moe]([m5C])p.[moe](A)p.[moe](T)p.[moe](T)[sp].d(T)[sp].d(G)[sp].d(T)[sp].d([m5C])[sp].d(T)[sp].d(T)[sp].d(T)[sp].d(A)[sp].d(T)[sp].d(T)[sp].[moe](T)p.[moe](T)p.[moe](T)[sp].[moe]([m5C])}$$$$ (last 3' nucleoside missing)”, 0 score 0-7. With “RNA1{[moe](G)[sp].[moe]([m5C])p.[moe](A)p.[moe]([m5C])p.[moe](A)p.[moe](G)p.d(T)[sp].d(T)[sp].d([m5C])[sp].d([m5C])[sp].d([m5C])[sp].d(A)[sp].d(G)[sp].d(A)[sp].d(T)[sp].d(A)[sp].[moe]([m5C])p.[moe](T)[sp].[moe]([m5C])}$$$$ (last 3' nucleoside missing)” the figure was 0 score 0-7.
